Assay results as given in patent US8507472B2 (priority 2010, dated 2013).

Assays:
Septoria tritici = Septoria tritici test (wheat)/protective; format: in vivo; conditions: in vivo
Method: (§1) Solvent: 49 parts by weight of N,N-dimethylacetamide
(§2) Emulsifier: 1 part by weight of alkylaryl polyglycol ether
To produce a suitable preparation of active compound, 1 part by weight of active compound is mixed with the stated amount of solvent and emulsifier, and the concentrate is diluted with water to the desired concentration.
To test for protective activity, young plants are sprayed with the active compound preparation at the stated application rate. After the spray coating has dried on, the plants are sprayed with a spore suspension of Septoria tritici. The plants remain in an incubation cabin at 20° C. and 100% relative atmospheric humidity for 48 hours. The plants are then placed under a translucent hood at 15° C. and 100% relative atmospheric humidity for a further 60 hours.
The plants are placed in a greenhouse at a temperature of about 15° C. and a relative atmospheric humidity of 80%.
Evaluation is carried out 21 days after the inoculation. 0% means an efficacy which corresponds to that of the control, whereas an efficacy of 100% means that no infection is observed.

Venturia inaequalis = experiment: Venturia test (apple)/protective; format: in vivo; conditions: 100 ppm active compound, protective, evaluation 10 days after inoculation
Method: Solvents: 24.5 parts by weight of acetone • 24.5 parts by weight of dimethylacetamide Emulsifier: 1 part by weight of alkylaryl polyglycol ether
(§3) To produce a suitable preparation of active compound, 1 part by weight of active compound is mixed with the stated amounts of solvents and emulsifier, and the concentrate is diluted with water to the desired concentration.
(§4) To test for protective activity, young plants are sprayed with the active compound preparation at the stated application rate. After the spray coating has dried on, the plants are inoculated with an aqueous conidia suspension of the apple scab pathogen Venturia inaequalis and then remain in an incubation cabin at about 20° C. and 100% relative atmospheric humidity for 1 day.
(§5) The plants are then placed in a greenhouse at about 21° C. and a relative atmospheric humidity of about 90%.
(§6) Evaluation is carried out 10 days after the inoculation. 0% means an efficacy which corresponds to that of the control, whereas an efficacy of 100% means that no infection is observed.

Alternaria solani = experiment: Alternaria test (tomato)/protective; format: in vivo; conditions: in vivo
Outline: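 Young tomato plants were sprayed with compound (DMF/emulsifier formulation diluted in water) and inoculated with A. solani spores 1 day later. Plants were kept 24 h at 100% RH and 22 °C, then at 96% RH and 20 °C. Efficacy was scored 7 days post-inoculation, where 0% equals untreated control and 100% means no infection.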

Pyrenophora teres = Pyrenophora teres test (barley)/protective; format: in vivo; conditions: in vivo
Outline: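 Protective test: young barley plants sprayed at the stated rate with compound in DMF/alkylaryl polyglycol ether diluted with water, inoculated with P. teres spores 1 day later, kept 48 h at 100% rel. humidity and 22° C., then greenhouse at 80% and 20° C. Efficacy scored 7-9 days post-inoculation (0% = control, 100% = no infection).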

Sphaerotheca fuliginea = experiment: Sphaerotheca test (cucumber)/protective; format: in vivo; conditions: in vivo
Outline: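 Protective test: young cucumber plants sprayed with compound (DMF/alkylaryl polyglycol ether concentrate diluted in water) at the stated rate, inoculated with S. fuliginea spores 1 day later, then kept in greenhouse at 23 °C, 70% RH. Efficacy scored 7 days post-inoculation; 0% equals untreated control, 100% means no infection.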

Uromyces appendiculatus = experiment: Uromyces test (bean)/protective; format: in vivo; conditions: in vivo
Method: (§7) Solvents: 24.5 parts by weight of acetone
(§8) • 24.5 parts by weight of dimethylacetamide Emulsifier: 1 part by weight of alkylaryl polyglycol ether
as §3
as §4, with “spore” for “conidia”, “bean rust” for “apple scab”, “Uromyces appendiculatus” for “Venturia inaequalis”
as §5, §6

Botrytis cinerea = experiment: Botrytis test (bean)/protective; format: in vivo; conditions: 100 ppm active compound, protective, evaluation 2 days after inoculation
Method: as §7, §8, §3
To test for protective activity, young plants are sprayed with the active compound preparation at the stated application rate. After the spray coating has dried on, 2 small pieces of agar colonized by Botrytis cinerea are placed onto each leaf. The inoculated plants are placed in a dark chamber at about 20° C. and 100% relative atmospheric humidity.
2 days after the inoculation, the size of the infected areas on the leaves is evaluated. 0% means an efficacy which corresponds to that of the control, whereas an efficacy of 100% means that no infection is observed.

Fusarium graminearum [1] = format: in vivo; conditions: in vivo
Leptosphaeria nodorum = Leptosphaeria nodorum test (wheat)/protective; format: in vivo; conditions: in vivo
Outline: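 Young wheat plants were sprayed protectively, then inoculated 1 day later with L. nodorum spores and held 48 h at 100% humidity and 22° C. They were then kept in a greenhouse at 90% humidity and 22° C. Efficacy was scored 7-9 days post-inoculation, where 0% equals control and 100% means no infection.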

Puccinia triticina = Puccinia triticina test (wheat)/protective; format: in vivo; conditions: in vivo
Method: Solvent: 49 parts by weight of […]
as §2
(§9) To produce a suitable preparation of active compound, 1 part by weight of active compound is mixed with the stated amounts of solvent and emulsifier, and the concentrate is diluted with water to the desired concentration.
(§10) To test for protective activity, young plants are sprayed with the active compound preparation at the stated application rate.
After the spray coating has dried on, the plants are sprayed with spores of a spore suspension of Puccinia triticina. The plants remain in an incubation cabin at 20° C. and 100% relative atmospheric humidity for 48 hours.
The plants are placed in greenhouse at a temperature of about 20° C. and a relative atmospheric humidity of about 80%.
Evaluation is carried out 8 days after the inoculation. 0% means an efficacy which corresponds to that of the control, whereas an efficacy of 100% means that no infection is observed.

[2] = tested on: Fusarium nivale (var. majus); experiment: Fusarium nivale (var. majus) test (wheat)/protective; format: in vivo; conditions: 1000 ppm active compound, protective, evaluation 5 days after inoculation
Method: as §1, §2, §9, §10
After the spray coating has dried on, the plants are sprayed with spores of a spore suspension of Fusarium nivale (var. majus).
The plants are placed in a greenhouse chamber under a translucent incubation hood at 10° C. and 100% relative atmospheric humidity.
Evaluation is carried out 5 days after the inoculation. 0% means an efficacy which corresponds to that of the control, whereas an efficacy of 100% means that no infection is observed.

Fusarium graminearum [3] = experiment: microbe, parasite or virus in culture; format: cell-based; conditions: 50 μM
DON/AcDON production = experiment: microbe, parasite or virus in culture; format: cell-based, Fusarium graminearum; conditions: 7 days at 28° C.
Phytophthora infestans = format: in vivo; conditions: in vivo

SMILES | efficacy in % (Septoria tritici) | efficacy in % (Venturia inaequalis) | efficacy in % (Alternaria solani) | efficacy in % (Pyrenophora teres) | efficacy in % (Sphaerotheca fuliginea) | efficacy in % (Uromyces appendiculatus) | efficacy in % (Botrytis cinerea) | efficacy in % (Fusarium graminearum [1]) | efficacy in % (Leptosphaeria nodorum) | efficacy in % (Puccinia triticina) | efficacy in % [2] | % inhibition of the fungal growth of Fusarium graminearum at 50 μM (Fusarium graminearum [3]) | % inhibition of DON/AcDON at 50 μM (DON/AcDON production) | efficacy in % (Phytophthora infestans)
CC1CCc2c(-c3ccncc3F)c(-c3ccc(F)cc3)nn21 (stereo not drawn) [Example 117] | 100% | 100% | 94% | 100% | 95% | 90% | 100% | 100% | 86% | 100% | 100% | – | – | –
O=C(Nc1cc(-c2c(-c3ccc(F)cc3)nn3c2CCCC3)ccn1)c1ccsc1 [Example 47] | 100% | – | 90% | 90% | 96% | – | – | – | – | – | 80% | 76% | 100% | 80%
CC(C)(O)C(=O)Nc1cc(-c2c(-c3ccccc3)nn3c2CCCC3)ccn1 [Example 50] | 90% | 88% | 95% | 95% | 94% | – | – | 83% | – | 86% | 83% | 57% | 92% | –
CCC(=O)Nc1cc(-c2c(-c3ccsc3)nn3c2CCCC3)ccn1 [Example 59] | – | 97% | 70% | 90% | 98% | – | 100% | 94% | 89% | 100% | 100% | 100% | 100% | –
O=CNc1cc(-c2c(-c3ccc(F)cc3)nn3c2CCCC3)ccn1 [Example 36] | 100% | – | – | 89% | 94% | 85% | – | 93% | 90% | 78% | 88% | 94% | 99% | 80%
CC(C)(O)C(=O)Nc1cc(-c2c(-c3ccc(F)cc3)nn3c2CCCC3)ccn1 [Example 55] | 90% | – | 80% | 95% | 95% | – | – | 83% | 90% | 100% | 100% | – | – | –
COC(=O)Nc1cc(-c2c(-c3ccccc3)nn3c2CCCC3)ccn1 [Example 27] | – | 89% | 100% | 90% | – | 94% | 92% | 94% | – | 75% | 86% | 56% | 99% | 80%
C[C@H](O)C(=O)Nc1cc(-c2c(-c3ccccc3)nn3c2CCCC3)ccn1 [Example 25] | 86% | 94% | 100% | 100% | 94% | 94% | 90% | – | 95% | 88% | 100% | 92% | 99% | 80%
CC(C)C(=O)Nc1cc(-c2c(-c3ccc(F)cc3)nn3c2CCC3C)ccn1 (stereo not drawn) [Example 77] | 100% | 100% | 89% | – | – | 98% | 100% | 90% | 94% | 88% | 100% | – | – | –
CC(=O)Nc1cc(-c2c(-c3ccsc3)nn3c2CCCC3)ccn1 [Example 58] | 89% | 99% | 80% | 90% | 96% | – | 100% | 100% | 94% | 100% | 100% | 100% | 100% | 70%
Fc1ccc(-c2nn3c(c2-c2ccncc2)CCCCC3)cc1 [Example 43] | 100% | 98% | 94% | 95% | – | 90% | 99% | – | 90% | 100% | 80% | 100% | 98% | 70%
CCC(=O)Nc1cc(-c2c(-c3ccc(F)cc3)nn3c2CCC3C)ccn1 (stereo not drawn) [Example 76] | 100% | 100% | 100% | – | 100% | 95% | 100% | 90% | 89% | 88% | 100% | – | – | –
O=CNc1cc(-c2c(-c3ccccc3)nn3c2CCCC3)ccn1 [Example 37] | – | – | 95% | 100% | – | – | – | – | 90% | 78% | 86% | 93% | 99% | 70%
